From patent US11826325B2, “Use of Belinostat or pharmaceutically acceptable salt thereof in preparation of drug for treating infection” (priority 2021, dated 2023)

How the values were obtained:
HU protein [1] = biological target: T1, HU protein (Bacillus subtilis, UniProt P08821); assay: Nuclear magnetism Titration (HSQC) binding experiment; conditions: 10 μM HU protein, 1 μL of 100 mM Belinostat stock added
From the text: (§1) At the molecular level, a binding effect of Belinostat with the HU protein was verified by nuclear magnetism Titration and waterLOGSY experiments. The isoleucine (Ile) at the 71^St site in the HU protein was mutated into alanine (Ala) to obtain a corresponding mutant (hereinafter referred to as “HU^171A protein”), then the waterLOGSY experiment was repeated, and the binding effect of the drug and the mutated HU^171A protein disappeared, proving that a key binding site of the two was the amino acid at the 71st site in the HU protein. Specific experimental steps and experimental results are as follows:
An appropriate amount of Belinostat (MedChemExpress Company) was weighed and dissolved in DMSO-d6 (Solarbio Science & Technology Co., Ltd.) to obtain a stock solution of Belinostat with a concentration of 100 mM for use. 480 μl of solution containing 10 μM of HU protein was taken, 20 μL of D2O was added and mixed evenly, the obtained solution was transferred into a nuclear magnetic resonance tube, and an HSQC spectrogram of the HU protein was recorded on a Brooke 600 MHz nuclear magnetic resonance spectrometer (Avance III). 1 μL of Belinostat stock solution was taken, added into the foregoing nuclear magnetic resonance tube and mixed evenly, and then an HSQC spectrogram was recorded again.

HU protein [2] = biological target: T1, HU protein; assay: waterLOGSY 1D NMR binding experiment, HU protein; conditions: 10 μM protein, pH 6.5 buffer
From the text: as §1
(§2) 1 μL of the foregoing Belinostat stock solution was taken, 479 μL of buffer solution (300 mM of NaCl and 50 mM of K2HPO4, with the pH of 6.5) and 20 μL of D2O were added and mixed evenly, and then the obtained solution was transferred to the nuclear magnetic resonance tube for use. In addition, two parts of 1 μL of the foregoing Belinostat stock solution were taken, an appropriate amount of HU protein and HU^171A protein were added respectively, then an appropriate amount of buffer solution and 20 μL of D2O were added respectively, so that the total volume of the solution was 500 μL, and the final protein concentration was 10 μm. After uniform mixing, the obtained solutions were transferred to nuclear magnetic resonance tubes for use. […]

HU^171A protein = HU^171A protein (Bacillus subtilis, UniProt P08821, I71A); assay: waterLOGSY 1D NMR binding experiment, mutated HU protein; conditions: 10 μM protein, pH 6.5 buffer
From the text: as §1, §2

[3] = tested on: Bacillus subtilis (ATCC 23857 strain); assay: Growth curve of Bacillus subtilis (OD600); assay type: cell-based; conditions: 24 hours
Description: (§3) Before the experiment, an appropriate amount of Belinostat was weighed and dissolved in DMSO to obtain a mother liquid with a concentration of 100 mM. The mother liquid was diluted with an LB medium for use. Bacillus subtilis used in this embodiment was ATCC 23857 strain, and Staphylococcus aureus was methicillin-resistant Staphylococcus aureus ATCC BAA-1761 strain.
The experiment was performed on a 96-well plate, four groups of drug treated groups and one blank control group (that is, the Control group) were set, and each group had three repeat wells. A bacterial solution of Bacillus subtilis (ATCC 23857 strain) cultured in an LB medium was diluted to 5×10^5 CFU/mL with an LB medium, 15 wells were selected in the middle of the 96-well plate, 100 μL of diluted bacterial solution was added to each well, and then 100 μL of Belinostat solution diluted with the LB medium was added, so that the final drug concentrations in the four drug treated groups were 100 μM, 200 μM, 400 μM, and 500 μM, respectively. DMSO and the LB medium were added to the blank control group, so that the final concentration of the DMSO was 0.5% and a volume of a reaction system was consistent with that of each drug treated group. Shaking culture was performed at 37° C. for 24 hours.
Absorbance at 600 nm was used as an index of a bacterial concentration in the culture solution for determining once every 3 hours. Finally, with OD600 as a vertical coordinate and time as a horizontal coordinate, a bacterial growth curve was drawn.

Bacillus subtilis [4] = assay: DAPI staining of Bacillus subtilis; assay type: cell-based; conditions: 500 μM, 4 hours
Description: as §3
(§4) The experiments were performed in EP tubes, and one drug treated group and one blank control group were set. A bacterial solution of Bacillus subtilis cultured in an LB medium was diluted to 5×10^5 CFU/mL with the LB medium, 100 μL of diluted bacterial solution was taken and added to a 1.5 mL EP tube, and then 100 μL of Belinostat solution diluted with the LB medium was added, so that the final drug concentration was 500 μM. DMSO and the LB medium were added to the blank control group, so that the final concentration of the DMSO was 0.5% and a volume of a reaction system was consistent with that of the drug treated group. Three replicate tube were set in each group, and shaking culture was performed at 37° C. for 4 hours. […]

[5] = tested on: Staphylococcus aureus (ATCC BAA-1761 strain); assay: DAPI staining of Staphylococcus aureus; assay type: cell-based; conditions: 500 μM, 4 hours, methicillin-resistant strain
Description: as §3, §4

Bacillus subtilis [6] = assay: Transmission electron microscope observation of Bacillus subtilis; assay type: cell-based; conditions: 500 μM, 4 hours
Description: as §3
(§5) A bacterial solution of Bacillus subtilis cultured in an LB medium was diluted to 5×10^5 CFU/mL with the LB medium, 2.5 mL of diluted bacterial solution was taken and added to a 15 mL centrifuge tube, and then 2.5 mL of Belinostat solution diluted with the LB medium was added, so that the final drug concentration was 500 μM. 25 μL of DMSO and an appropriate amount of LB medium were added to the blank control group (the Control group) to ensure that a volume of a reaction system was consistent with that of the drug treated group (the Treated group). Three replicate tubes were set in each group. Shaking culture was performed at 37° C. for 4 hours, and bacteria were collected by centrifugation. […]

Staphylococcus aureus = assay: Transmission electron microscope observation of Staphylococcus aureus; assay type: cell-based; conditions: 500 μM, 4 hours
Description: as §3, §5

[7] = tested on: Staphylococcus aureus (ATCC BAA-1761 strain); assay: Mouse superficial skin injury infection model, viable bacterial count on infected wound; assay type: in vivo; conditions: mice; for bacterial count in skin lesion site compared with blank control group: topical twice a day for 3 days, p.value=0.0006
Description: (§6) Medical tape; 3% chloral hydrate; normal saline; 0.1 μM Belinostat and 100 μM Belinostat (with solvents being 10% glycerin); a commercially available fusidic acid ointment (2% drug content); an LB plate; an independent air supply cage for mice; surgical scissors; tweezers; and a hair removal device.
(§7) 20 female BALB/c mice aged 6-8 weeks were kept in the independent air supply cage.
Preparation of a bacterial solution: Staphylococcus aureus (ATCC BAA-1761 strain), preserved by the Laboratory Department of the First Affiliated Hospital of Xi′an Jiaotong University. Before the experiment, Staphylococcus aureus was inoculated in 5 mL of LB and placed in an incubator at 37° C. for shaking culture, and when the amount of bacteria was about 10^7 CFU/mL, the bacteria were taken out for use.
Back skin of 6-8 week-old female BALB/c mice was depilated with a depilatory paste before modeling, and an exposed skin region with a size of about 1 cm^2 was formed. On the day of modeling, the mice were anesthetized by intraperitoneal injection of 3% chloral hydrate at 10 mL/kg. A same operator pasted the medical adhesive tape to the depilated skin of the mice with basically a same strength, and then tore the medical adhesive tape off. The foregoing paste-tear operation was repeated many times to remove stratum corneum, and the adhesive tape needed to be replaced during each paste-tear process. When the skin of the mice became red and shiny, but there was no regular bleeding, the paste was stopped. The foregoing 10 μL of bacterial suspension was evenly applied to the damaged skin of the mice, and the infection lasted for 24 hours to establish the model of superficial skin injury of the mice.
The mice were randomly divided into four groups, which were a blank control (control) group, a low-concentration X group (low-concentration group, with a specific concentration of 0.1 μM), a high-concentration X group (high-concentration group, with a specific concentration of 100 μM), and a fusidic acid group (fusidic acid group, that is, a positive control group), with five mice in each group. All the mice of the blank control group were killed the day before the start of treatment to quantify an amount of bacterial inoculation. The three drug groups were administered twice a day (8:00 am. and 8:00 p.m. respectively) for three consecutive days after the infection. Dosages of the low-concentration X group and the high-concentration X group were 50 μL/time for each mouse, and a dosage of the fusidic acid group was 0.1 g/time for each mouse. […] After the experiment, the mice were killed.
After the mice were killed, a wound of about 1 cm^2 was excised immediately, and put into a tissue homogenizing tube with 1 mL of normal saline and magnetic beads for tissue homogenization. 100 μL of tissue homogenate was diluted with normal saline for 10^1, 10^2, 10^3, and 10^4 times gradient, and then 100 μL of each diluted solution was evenly spread on an LB plate. After inverted overnight culture for 12-24 hours, colonies were counted and the count was converted into bacterial content (CFU/cm^2) per square centimeter of tissue.

[8] = Mouse superficial skin injury infection model, wound healing; assay type: in vivo, BALB/c mice; conditions: mice, low-concentration group 0.1 μM vs high-concentration group 100 μM and fusidic acid group
Description: as §6, §7
Back skin of 6-8 week-old female BALB/c mice was depilated with a depilatory paste before modeling, and an exposed skin region with a size of about 1 cm^2 was formed. On the day of modeling, the mice were anesthetized by intraperitoneal injection of 3% chloral hydrate at 10 mL/kg. A same operator pasted the medical adhesive tape to the depilated skin of the mice with basically a same strength, and then tore the medical adhesive tape off. […]
The mice were randomly divided into four groups, which were a blank control (control) group, a low-concentration X group (low-concentration group, with a specific concentration of 0.1 μM), a high-concentration X group (high-concentration group, with a specific concentration of 100 μM), and a fusidic acid group (fusidic acid group, that is, a positive control group), with five mice in each group. All the mice of the blank control group were killed the day before the start of treatment to quantify an amount of bacterial inoculation. […]

T1 sequence (P08821 whole entry): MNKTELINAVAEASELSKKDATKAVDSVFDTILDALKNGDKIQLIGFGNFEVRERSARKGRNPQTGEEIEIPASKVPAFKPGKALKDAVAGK
HU^171A protein, sequence (P08821 whole entry I71A): as the sequence (P08821 whole entry) above, with I71A counted along it

Structure (SMILES)	binding to HU protein (peak migration and peak intensity change in HSQC spectrum) (HU protein [1])	binding to HU protein (waterLOGSY peaks reversed into negative peaks) (HU protein [2])	binding to mutated HU^171A protein (waterLOGSY) (HU^171A protein)	effect on growth of Bacillus subtilis (absorbance at 600 nm vs blank control) ([3]; 200 μM)	effect on growth of Bacillus subtilis ([3]; 400 μM)	effect on growth of Bacillus subtilis ([3]; 500 μM)	effect on growth of Bacillus subtilis ([3]; different concentrations (100, 200, 400, 500 μM), 37° C.)	DAPI staining, nucleus region morphology (Bacillus subtilis [4])	DAPI staining, nucleus region morphology [5]	transmission electron microscope, cell length and nucleoid regions (Bacillus subtilis [6])	transmission electron microscope, nucleoid regions (Staphylococcus aureus)	bacterial load at the skin lesion site, two concentrations ([7]; 0.1 μM and 100 μM, 50 μL/time, twice a day, 3 days)	antibacterial ability compared with commercial fusidic acid ([7]; dosage of Belinostat lower than that of fusidic acid)	curative effect compared with fusidic acid ([7]; molar dosages much lower than fusidic acid)	bacterial count in skin lesion site compared with blank control group [7]	wound healing speed [8]
O=C(/C=C/c1cccc(S(=O)(=O)Nc2ccccc2)c1)NO [Belinostat, N-hydroxy-3-(3-[(phenylamino)sulfonyl]phenyl)acrylamide]	can bind to the HU protein	bound to the HU protein	could not react with the mutated HU protein	relatively strong inhibitory effect on bacterial growth	almost completely inhibited	almost completely inhibited	inhibitory effect on growth of Bacillus subtilis	bacterial nucleus region became longer	bacterial nucleus region was dispersed	increased to different degrees, and nucleoid regions were scattered in many places in cytoplasm	became inconspicuous and showed a loose state	same bactericidal effect	equivalent antibacterial ability	better than that of the fusidic acid	significantly reduced	significantly faster
CC(=O)O[C@H]1C[C@@]2(C)[C@@H](C[C@@H](O)[C@H]3[C@@]4(C)CC[C@@H](O)[C@@H](C)[C@@H]4CC[C@@]32C)/C1=C(\CCC=C(C)C)C(=O)O [fusidic acid]	–	–	–	–	–	–	–	–	–	–	–	–	–	–	significantly reduced	–
